Measured values from patent US4070484A, “Antiallergic composition containing aromatic carboxylic amide derivatives and method of using the same” (Kissei Pharmaceutical Co., Ltd., priority 1973, dated 1978).
“Also recorded” adds a separate entry of the source. Like-named read-outs stand apart in the source and are kept apart here.

How the values were obtained:
[1] = tested on: mast cells; conditions: known art, cited from earlier work
[2] = tested on: homologous passive cutaneous anaphylaxis (antigen-antibody reaction); test: Homologous Passive Cutaneous Anaphylaxis in Rats; type: in vivo, rat (Wistar male); conditions: Rattus norvegicus, po; 200 mg/kg orally 2 hours prior to the injection of antigen
Experimental: Wistar male rats weighing 120-150 g were used in this experiment. […]. Normal rats were sensitized passively with dilution of the antibody by means of intradermal injection. After 48 hours of the sensitization, the mixture of antigen (EA) and evens blue was injected intravenously. The animals were killed by a blow on the head 30 minutes after the injection, and then the blue spot resulted from the antigen-antibody reaction was measured photometrically.
A given test compound dissolved in 1 % NaHCO3 solution was administrated in a dose of 200 mg/kg orally 2 hours prior to the injection of antigen, while only the vehicle solution was administered to the control group.
The efficacy of the test compounds to inhibit the homologous passive cutaneous anaphlaxis was compared with the value (%) calculated using the following formula: [formula] wherein A stands for the amount of leaked dye in control group and B for the amount of leaked dye in the group administered with a given test compound.

[3] = tested on: sensitized mesenteric mast cells; test: Effect on the Disruption of the Sensitized Mast Cells; type: cell-based, rat; conditions: 10^-5 g/ml, 5 minutes prior to the treatment of antigen
Experimental: Mesenteric mast cells isolated from normal rats were sensitized passively by means of incubation with rat reaginic antibody at 37° C. After termination of the incubation, the specific antigen (DNP-Ascaris) was added to the incubation medium, then these mast cells in mesentery were fixed with formalin and stained with 0.1 % toluidine blue (in acetic acid buffer; pH: 4.6). The number of mast cells disrupted as a consequence of the antigen-antibody reaction were counted under a microscope. The number of the mast cells disrupted were also counted without the addition of the specific antigen.
A given test compound dissolved in 1 % NaHCO3 solution was added to the incubation medium at a concentration of 10^-5 g/ml, 5 minutes prior to the treatment of antigen, while only the vehicle was added to the control group.
The efficacy of the test compounds to inhibit the mast cell disruption was compared with the value (%) calculated using the following formula: [formula] wherein P stands for the percentage of disrupted mast cells in the control group, Q for the percentage of mast cells disrupted spontaneously and R for the percentage of disrupted mast cells in the group treated with a given test compound.

[4] = tested on: antiallergic action, oral administration to mammalia; conditions: known art; cited from earlier work
[5] = tested on: antiallergic action, oral administration to mammalia; test: Antiallergic action (general statements); type: in vivo; conditions: general statement
[6] = tested on: dd-stain mice; test: Acute Toxicity (LD50) in mice; type: in vivo; conditions: oral, mortality on the 8th day, 11520 min
Experimental: (§1) The median lethal dose (LD50) of the new aromatic carboxylic acid amide derivatives of this invention were determined in dd-stain male and female mice (6 weeks old) by oral administration and in Wistar strain male and female rats (7 weeks old) by oral and intraperitoneal administration. Each animal selected for the experiment was maintained in an air conditioned room at a temperature of 22° ± 1° C and a relative humidity of 55 ± 5% during the full course of the experiment. All animals were fed compressed pellets (CE-2 type produced by Japan CLEA Co.) and water was available ad libitum by bottle. Five groups of ten animals for each administration route were used.
(§2) Since these compounds were isoluble in water, they were suspended in a 0.5% aqueous solution of carboxymethylcellulose at each dosage level. The administrative volume of each agent to 10 g body weight mouse was 0.2 ml for oral administration, while that to 100g body weight of rat was 0.5 ml for intraperitoneal and oral administrations.
(§3) The LD50 values were calculated from the mortality on the 8th day by the Litchfield-Wilcoxon's method.

[7] = Acute Toxicity (LD50) in mice; type: in vivo; conditions: mouse, in vivo, po, mortality on the 8th day
Experimental: as §1, §2, §3

[8] = Acute Toxicity (LD50) in rats; type: in vivo; conditions: rat, in vivo, mortality on the 8th day
Experimental: as §1, §2, §3

[9] = tested on: Wistar strain rats; test: Acute Toxicity (LD50) in rats; type: in vivo; conditions: mortality on the 8th day, 11520 min
Experimental: as §1, §2, §3

[10] = tested on: child patients having asthma bronchiale; test: Clinical trial for children; type: in vivo, human; conditions: oral
From the text: A clinical trial was made by orally administering Compound No. 33 to child patients having asthma bronchiale. Child patients having asthma bronchiale in atopic and mixed forms were chosen for the clinical trial. Determination of the effect was integrally judged from the extent of subjective symptoms (the number of asthma attacks, the degree of dyspnea, wheeze, the number of cough attacks and sputum expectoration), objective findings (dry rale) and pulmonary function test.
(§4) The effect was evaluated by five grades of "remarkable improvement", "moderate improvement", "slight improvement", "unchanged"and "aggravated". A daily dose (100-200 mg) of the active compound in the powdery preparation obtained in Example 12 was administered orally to patients in equal portions four times a day, i.e., after every meal and before sleeping.

[11] = tested on: adult patients having asthma bronchiale; test: Clinical trial for adults; type: in vivo, human; conditions: oral
From the text: A clinical trial was made by administering 2-(3',[…]-dimethoxycinnamoylamino)-benzoic acid orally to adult patients having asthma bronchiale. These patients having asthma bronchiale were chosen from those suffering from atopic and mixed forms. Determination of the effect were integrally judged from the extent of subjective symptoms (the number of asthma attacks, the degree of dyspnea, wheeze, the number of cough attacks and sputum expectoration), objective findings (dry rale) and pulmonary function test.
as §4, with “"unchanged", and” for “"unchanged"and”, “(400-600” for “(100-200”, “daily, ie,” for “a day, i.e.,”

[12] = tested on: experimental asthma in rats; test: Experimental Asthma in Rats; type: in vivo, rat; conditions: for minimal effective dose: Rattus norvegicus, oral, 2 hours before antigen injection
Experimental: Twenty normal male rats weighing 120-150 g were divided into four groups each consisting of five rats. All of the rats were sensitized passively by means of intravenous injection of rat reaginic antibody. After a lapse of 22 hours of sensitization, 5 milliliters of a 1% aqueous solution of NaHCO3 containing (3',4'-dimethoxycinnamoylamino)-benzoic acid* in a dose of 0 mg/kg (control), 5 mg/kg, 10 mg/kg and 20 mg/kg were orally administered to the rats in each group, and then canulation was begun on both the trachea and the common carotid artery on the rats. The rate and volume of respiration and systemic blood pressure were recorded simultaneously on a polygraph.
After 2 hours of administration, the challenge symptoms were subjected, by means of injection of the antigen, and the results are shown in the drawing attached herewith.

In the case of OCC(O)COc1ccc(Cl)cc1 (stereo not drawn) [Chlorphenesin, reference compound], the “inhibition of mast cell disruption (in words)” value (“inhibition … (in words)” for short) [1] is listed as “inhibitor of mast cell disruption” and the inhibition at 200 mg/kg [2] is listed as 36.7%.
In the case of CCCOc1ccc(C=CC(=O)Nc2ccccc2C(=O)O)cc1OC [compound 54, N-(3'-methoxy-4'-n-propoxycinnamoyl)-anthranilic acid], the “Inhibition percentage (mast cell disruption)” value (“Inhibition percentage” below) [3] is reported as 37% and the inhibition at 200 mg/kg [2] is reported as 52.2%.
In the case of COc1ccc(C(C)=CC(=O)Nc2ccccc2C(=O)O)cc1OC [N-(3',4'-dimethoxy-β-methylcinnamoyl)-anthranilic acid], the “Inhibition percentage” value [3] is reported as 45% and the inhibition at 200 mg/kg [2] is reported as 66.2%.
With COc1cccc(C=CC(=O)Nc2cccc(C(=O)O)c2)c1 [compound 15, 3-(3'-methoxycinnamoylamino)-benzoic acid] the “Inhibition percentage” value [3] was 18% and the inhibition at 200 mg/kg [2] was 45%.
In the case of O=C(O)c1cc(=O)c2c(OCC(O)COc3cccc4oc(C(=O)O)cc(=O)c34)cccc2o1 [Disodium cromoglycate], the “pharmacological effect when administered orally (in words)” value [4] is given as “loses its pharmacological effect when administered orally”, the “inhibition … (in words)” value [1] is given as “inhibitor of mast cell disruption” and the “inhibition … (in words)” value ([1]; listed as disodium cromoglycate) is given as “inhibits the disruption of mast cells and release therefrom of chemical mediators”. For the same compound, the “Inhibition percentage” value [3] was 16%.
For “Methylenedioxycinnamoylaminobenzoic acid”, the “antiallergic action / pharmacological activity (in words)” value [5] was “strong antiallergic action”.
COc1ccc(C=CC(=O)Nc2ccccc2C(=O)O)cc1OC [Compound No. 33, N-(3',4'-dimethoxycinnamoyl)-anthranilic acid] showed an LD50 [6] of 500 mg/kg, an LD50 at 192 h [7] of 705 mg/kg and an LD50 at 192 h ([8]; ip, intraperitoneal) of 385 mg/kg. It also gave an LD50 at 192 h ([8]; po) of 1850 mg/kg, an LD50 ([9]; intraperitoneal) of 338 mg/kg and an LD50 ([9]; oral) of 2030 mg/kg. For the same compound, the “Inhibition percentage” value [3] was 33%, the Evaluation ([10]; 200 mg × 15 days) was “mod. impr” and the Side effect ([10]; 200 mg × 15 days) was “none”. The Evaluation ([10]; 200 mg × 29 days) was “slight impr”, the Side effect ([10]; 200 mg × 29 days) was “none” and the Evaluation ([10]; 200 mg × 35 days) was “slight imp”. For the same compound, the Side effect ([10]; 200 mg × 35 days) was “none”, the Evaluation ([11]; 400mg × 14 days) was “slight imp” and the Side effect ([11]; 400mg × 14 days) was “none”. For the same compound, the Evaluation ([11]; 400mg × 21 days) was “mod. impr”, the Side effect ([11]; 400mg × 21 days) was “none” and the Side effect ([11]; 600mg × 14 days) was “none”. For the same compound, the Evaluation ([11]; 600mg × 14 days, row) was “slight imp; also recorded: mod. impr”, the Evaluation ([11]; 600mg × 20 days) was “unchanged” and the Side effect ([11]; 600mg × 20 days) was “none”. For the same compound, the Evaluation ([11]; 600mg × 21 days) was “unchanged”, the Side effect ([11]; 600mg × 21 days) was “none” and the Evaluation ([11]; 600mg × 24 days) was “mod. impr”. For the same compound, the Side effect ([11]; 600mg × 24 days) was “none”, the inhibition at 200 mg/kg [2] was 46.1% and the minimal effective dose ([12]; read-out: dose showing inhibition of decrease in the rate of respiration) was at least 5 mg/kg. The minimal effective dose ([12]; read-out: dose showing inhibition of decrease in the volume of respiration) was at least 10 mg/kg, the “Asthmatic symptoms resulting from the challenge” value ([12]; oral 5, 10, 20 mg/kg) was “observed in the control group only” and the “effect on depression of blood pressure just after the challenge” value ([12]; oral 5, 10, 20 mg/kg, just after the challenge) was “no inhibiting effect”. The “effect on subsequent depression of blood pressure” value ([12]; oral 5, 10, 20 mg/kg, subsequent depression) was “showed an inhibiting effect on subsequent depression”.
For “cinnamoylaminobenzoic acid [reference compound]”, the “antiallergic action / pharmacological activity (in words)” value [5] was “only very weak antiallergic effect”.
